Test results as given in patent US20240059671A1, “TYROSINE KINASE 2 (TYK2) DEGRADATION COMPOUNDS AND METHODS OF USE” (CULLGEN (SHANGHAI), INC., priority 2020, published 2024).
Entries after “also recorded” stand apart in the source; their conditions may differ.

Columns and labels:
Assay type in all cases: cell-based
JAK1, JAK2, and JAK3 = assay: Immunoblot of JAK1/2/3 protein levels in MOLT-4 cells (selectivity of TYK2 reduction); details: MOLT-4 cells, 0.04, 0.2, 1, and 5 μM, 24 hours
Procedure: MOLT-4 cells were treated with CPD-038, CPD-039, and CPD-040 at 0.04, 0.2, 1, and 5 μM concentrations for 24 hours.
(§1) Rabbit anti-JAK1antibody (3344S), anti-JAK2 antibody (3230S), anti-JAK3 antibody (8827S), anti-TYK2 antibody (14193S), anti-STAT1 antibody (9167S), anti-STAT3 antibody (9139S), anti-phospho-STAT1 (Tyr701) antibody ([…]), anti-phospho-STAT3 (Tyr705) antibody (9145S), were purchased from Cell Signaling Technology; anti-β-actin antibody (ab8226) was from Abeam; HRP-conjugated anti-α-Tubulin (GNI4310-AT) antibody was purchased from GNI. Media and other cell culture reagents were purchased from Thermo Fisher.
(§2) Cultured cells were washed with cold PBS once and lysed in cold RIPA buffer supplemented with protease inhibitors and phosphatase inhibitors (Beyotime Biotechnology). The solutions were then incubated at 4° C. for 30 minutes with gentle agitation to fully lyse cells. Cell lysates were centrifuged at 13,000 rpm for 10 minutes at 4° C. and pellets were discarded. Total protein concentrations in the lysates were determined by BCA assays (Beyotime Biotechnology). Cell lysates were mixed with Laemmli loading buffer to 1× and heated at 99° C. for 5 min. Proteins were resolved on SDS-PAGE and visualized by chemiluminescence. Images were taken by a ChemiDoc MP Imaging system (Bio-Rad). Protein bands were quantitated using the accompanied software provided by Bio-Rad.

TYK2 [1] = target: T1, TYK2 (Homo sapiens, UniProt P29597); assay: TYK2 protein degradation in MOLT-4 cells by immunoblotting; parameters: endogenous in cells; host or cells: MOLT-4; details: 24 hours; for TYK2 Degradation (0.5 μM) / TYK2 Degradation (5 μM): MOLT-4 cells; for Reduction of TYK2 protein levels over a dose range (FIG. 1): MOLT-4 cells, 0.04, 0.2, 1, and 5 μM
T1 sequence (P29597 whole entry): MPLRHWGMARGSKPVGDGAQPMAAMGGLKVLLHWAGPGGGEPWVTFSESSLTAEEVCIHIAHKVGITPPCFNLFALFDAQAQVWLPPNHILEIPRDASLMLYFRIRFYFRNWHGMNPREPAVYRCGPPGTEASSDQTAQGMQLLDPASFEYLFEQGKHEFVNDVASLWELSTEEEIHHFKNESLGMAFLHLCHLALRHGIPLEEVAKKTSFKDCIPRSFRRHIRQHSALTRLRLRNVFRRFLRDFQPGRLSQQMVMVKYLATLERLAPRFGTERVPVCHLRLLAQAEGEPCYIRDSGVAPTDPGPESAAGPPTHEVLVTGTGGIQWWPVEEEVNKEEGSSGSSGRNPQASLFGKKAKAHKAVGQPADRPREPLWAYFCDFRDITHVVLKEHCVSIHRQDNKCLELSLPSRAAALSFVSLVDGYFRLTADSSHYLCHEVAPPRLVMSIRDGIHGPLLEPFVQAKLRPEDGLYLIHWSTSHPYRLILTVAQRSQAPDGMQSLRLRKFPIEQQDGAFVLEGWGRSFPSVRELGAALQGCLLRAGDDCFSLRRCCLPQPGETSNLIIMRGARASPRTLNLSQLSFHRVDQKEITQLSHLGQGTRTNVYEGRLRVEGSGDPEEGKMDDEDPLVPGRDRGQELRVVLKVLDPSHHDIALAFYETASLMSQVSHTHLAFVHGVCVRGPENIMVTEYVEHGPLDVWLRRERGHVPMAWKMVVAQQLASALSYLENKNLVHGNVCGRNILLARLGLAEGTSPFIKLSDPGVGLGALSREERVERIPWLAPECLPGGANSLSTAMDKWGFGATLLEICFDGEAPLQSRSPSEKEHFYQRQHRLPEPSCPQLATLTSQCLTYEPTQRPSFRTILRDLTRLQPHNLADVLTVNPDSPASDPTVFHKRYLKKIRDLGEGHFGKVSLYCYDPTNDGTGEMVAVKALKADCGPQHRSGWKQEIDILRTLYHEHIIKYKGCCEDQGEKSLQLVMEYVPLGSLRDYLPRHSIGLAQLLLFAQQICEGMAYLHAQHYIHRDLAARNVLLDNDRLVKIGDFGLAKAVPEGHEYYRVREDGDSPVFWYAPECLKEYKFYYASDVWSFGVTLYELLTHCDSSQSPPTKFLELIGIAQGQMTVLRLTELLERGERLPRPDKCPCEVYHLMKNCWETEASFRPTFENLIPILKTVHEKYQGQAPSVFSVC
Outline: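 MOLT-4 cells were exposed to compounds at 0.5 and 5 μM for 24 h, then lysed in RIPA buffer with protease and phosphatase inhibitors. TYK2 was detected by SDS-PAGE immunoblot with chemiluminescence, and band densitometry gave percent degradation.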

[2] = test system: phosphorylation of STAT1 (Tyr701) and STAT3 (Tyr705); assay: IFNα-induced STAT1/3 phosphorylation in Jurkat cells by immunoblotting; details: 3 or 30 nM, 16 hours, then IFNα (2000 IU) for 15 min
Procedure: (§3) Jurkat cells were treated with DMSO or a dose range of heterobifunctional compounds CPD-155, CPD-158, and CPD-164 at 3 or 30 nM concentrations for 16 hours. Cells were subsequently treated with IFNα (2000 IU) for 15 min as indicated.
as §1, §2

TYK2 [3] = target: T1, TYK2; assay: TYK2 protein levels in Jurkat cells by immunoblotting; parameters: endogenous in cells; details: 3 or 30 nM, 16 hours
Procedure: as §3, §2

TYK2 [4] = target: T1, TYK2; assay: TYK2 protein degradation in NOMO-1 cells by immunoblotting; parameters: endogenous in cells; details: for TYK2 Degradation (NOMO-1, 10 nM) / TYK2 Degradation (NOMO-1, 100 nM): NOMO-1 cells; for Reduction of TYK2 protein levels over a dose range (FIG. 2): NOMO-1 cells, 0.1, 1, 10, 100 and 1000 nM, 16 hours
Outline: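 NOMO-1 cells in RPMI 1640 with 10% FBS were exposed to compound at 0.1–1000 nM for 16 hours. TYK2 levels in RIPA lysates were measured by SDS-PAGE immunoblot with chemiluminescent detection and band densitometry.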

CNC(=O)c1nnc(NC(=O)CNC(=O)CCCCCCCC(=O)N[C@H](C(=O)N2C[C@H](O)C[C@H]2C(=O)NCc2ccc(-c3scnc3C)cc2)C(C)(C)C)cc1Nc1cccc(-c2ncn(C)n2)c1OC [CPD-039, N1-((S)-1-((2S,4R)-4-hydroxy-2-((4-(4-methylthiazol-5-yl)benzyl)carbamoyl)pyrrolidin-1-yl)-3,3-dimethyl-1-oxobutan-2-yl)-N9-(2-((5-((2-methoxy-3-(1-methyl-1H-1,2,4-triazol-3-yl)phenyl)amino)-6-(methylcarbamoyl)pyridazin-3-yl)amino)-2-oxoethyl)nonanediamide] was tested. Which “Selectivity of TYK2 protein reduction over JAK1, JAK2, and JAK3 (FIG. 1)” value (JAK1, JAK2, and JAK3) did it give?
The value was “very selective at the reduction protein levels of TYK2 over JAK1, JAK2, and JAK3; also recorded: highly selective at the degradation of TYK2 over JAKT/2/3 proteins”.

What about the “TYK2 Degradation (0.5 μM)” value (TYK2 [1]) of the same molecule?
The value was 60%.

What about the “TYK2 Degradation (5 μM)” value (TYK2 [1]) of the same molecule?
Its value is 90%.

And the “Reduction of TYK2 protein levels over a dose range (FIG. 1)” value (TYK2 [1])?
Its value is “concentration-dependently reduced the TYK2 proteins levels; also recorded: reduce TYK2 protein levels in a concentration-dependent manner”.

Which “Selectivity of TYK2 protein reduction over JAK1, JAK2, and JAK3 (FIG. 1)” value (JAK1, JAK2, and JAK3) does the source give for CNC(=O)c1nnc(NC(=O)CNC(=O)CCCCCCCCC(=O)N[C@H](C(=O)N2C[C@H](O)C[C@H]2C(=O)NCc2ccc(-c3scnc3C)cc2)C(C)(C)C)cc1Nc1cccc(-c2ncn(C)n2)c1OC [CPD-040, N1-((S)-1-((2S,4R)-4-hydroxy-2-((4-(4-methylthiazol-5-yl)benzyl)carbamoyl)pyrrolidin-1-yl)-3,3-dimethyl-1-oxobutan-2-yl)-N10-(2-((5-((2-methoxy-3-(1-methyl-1H-1,2,4-triazol-3-yl)phenyl)amino)-6-(methylcarbamoyl)pyridazin-3-yl)amino)-2-oxoethyl)decanediamide] here?
The value was “very selective at the reduction protein levels of TYK2 over JAK1, JAK2, and JAK3; also recorded: highly selective at the degradation of TYK2 over JAKT/2/3 proteins”.

And the “TYK2 Degradation (0.5 μM)” value (TYK2 [1])?
Its value is 60%.

What about the “TYK2 Degradation (5 μM)” value (TYK2 [1]) of the same molecule?
The value was 60%.

What about the “Reduction of TYK2 protein levels over a dose range (FIG. 1)” value (TYK2 [1]) of the same molecule?
The value was “concentration-dependently reduced the TYK2 proteins levels; also recorded: reduce TYK2 protein levels in a concentration-dependent manner”.

CNC(=O)c1nnc(Nc2ccc(C(=O)NCCCCCNc3cccc4c3C(=O)N(C3CCC(=O)NC3=O)C4=O)cn2)cc1Nc1cccc(-c2ncn(C)n2)c1OC (stereo not shown) [CPD-155, 6-((5-((5-((2-(2,6-dioxopiperidin-3-yl)-1,3-dioxoisoindolin-4-yl)amino)pentyl)carbamoyl)pyridin-2-yl)amino)-4-((2-methoxy-3-(1-methyl-1H-1,2,4-triazol-3-yl)phenyl)amino)-N-methylpyridazine-3-carboxamide] was tested. Which “Phosphorylation of STAT1 (Tyr701) and STAT3 (Tyr705) induced by IFNα (FIG. 3)” value (shortened to “Phosphorylation of STAT1”) [2] did it give?
Its value is “concentration-dependently reduced phosphorylation of STAT1 (Tyr701) and STAT3 (Tyr705) induced by IFNα treatment; also recorded: significantly decreased STAT1/3 phosphorylation downstream of IFNα stimulation”.

And the “TYK2 protein levels in Jurkat cells (FIG. 3)” value (“TYK2 protein levels … (FIG. 3)” below) (TYK2 [3])?
Its value is “reduced levels of TYK2 proteins”.

And the “TYK2 Degradation (NOMO-1, 10 nM)” value (TYK2 [4])?
The value was “A (A: ≥60% TYK2 degradation)”.

And the “TYK2 Degradation (NOMO-1, 100 nM)” value (TYK2 [4])?
The value was “A (A: ≥60% TYK2 degradation)”.

What about the “Reduction of TYK2 protein levels over a dose range (FIG. 2)” value (TYK2 [4]) of the same molecule?
Its value is “concentration-dependently reduced the TYK2 proteins levels; also recorded: highly potent in reducing TYK2 protein levels”.

CNC(=O)c1nnc(Nc2ccc(C(=O)NCCCCCCCCNc3cccc4c3C(=O)N(C3CCC(=O)NC3=O)C4=O)cn2)cc1Nc1cccc(-c2ncn(C)n2)c1OC (stereo not shown) [CPD-158, 6-((5-((8-((2-(2,6-dioxopiperidin-3-yl)-1,3-dioxoisoindolin-4-yl)amino)octyl)carbamoyl)pyridin-2-yl)amino)-4-((2-methoxy-3-(1-methyl-1H-1,2,4-triazol-3-yl)phenyl)amino)-N-methylpyridazine-3-carboxamide] was tested. Which “Phosphorylation of STAT1” value [2] did it give?
The value was “concentration-dependently reduced phosphorylation of STAT1 (Tyr701) and STAT3 (Tyr705) induced by IFNα treatment; also recorded: significantly decreased STAT1/3 phosphorylation downstream of IFNα stimulation”.

And the “TYK2 protein levels … (FIG. 3)” value (TYK2 [3])?
The value was “reduced levels of TYK2 proteins”.

And the “TYK2 Degradation (NOMO-1, 10 nM)” value (TYK2 [4])?
The value was “A (A: ≥60% TYK2 degradation)”.

What about the “TYK2 Degradation (NOMO-1, 100 nM)” value (TYK2 [4]) of the same molecule?
Its value is “B (B: <60% TYK2 degradation, and >20% TYK2 degradation)”.

What about the “Reduction of TYK2 protein levels over a dose range (FIG. 2)” value (TYK2 [4]) of the same molecule?
The value was “concentration-dependently reduced the TYK2 proteins levels; also recorded: highly potent in reducing TYK2 protein levels”.

CNC(=O)c1nnc(Nc2ccc(C(=O)NCCCCCNc3ccc4c(c3)C(=O)N(C3CCC(=O)NC3=O)C4=O)cn2)cc1Nc1cccc(-c2ncn(C)n2)c1OC (stereo not shown) [CPD-164, 6-((5-((5-((2-(2,6-dioxopiperidin-3-yl)-1,3-dioxoisoindolin-5-yl)amino)pentyl)carbamoyl)pyridin-2-yl)amino)-4-((2-methoxy-3-(1-methyl-1H-1,2,4-triazol-3-yl)phenyl)amino)-N-methylpyridazine-3-carboxamide] was tested. Which “Phosphorylation of STAT1” value [2] did it give?
The value was “concentration-dependently reduced phosphorylation of STAT1 (Tyr701) and STAT3 (Tyr705) induced by IFNα treatment; also recorded: significantly decreased STAT1/3 phosphorylation downstream of IFNα stimulation”.

And the “TYK2 protein levels … (FIG. 3)” value (TYK2 [3])?
Its value is “reduced levels of TYK2 proteins”.

And the “TYK2 Degradation (NOMO-1, 10 nM)” value (TYK2 [4])?
Its value is “A (A: ≥60% TYK2 degradation)”.

And the “TYK2 Degradation (NOMO-1, 100 nM)” value (TYK2 [4])?
The value was “B (B: <60% TYK2 degradation, and >20% TYK2 degradation)”.
